From paper PMC8894198, “Biosynthetic Microcin J25 Exerts Strong Antibacterial, Anti-Inflammatory Activities, Low Cytotoxicity Without Increasing Drug-Resistance to Bacteria Target” (Frontiers in Immunology, 2022)
Where a SMILES comes first, the peptide text is derived from it. Bridges are numbered along the chain shown (N, C = ends).

How the values were obtained:
Assay type in all cases: cell-based
E. coli K88 [1] = experiment: Electron microscopy (SEM, TEM) of treated bacteria
Description: Scanning electron microscope (SEM) was performed to test the morphological features of E. coli K88 cells by comparing cells incubated in the absence (control) or presence of MccJ25. For SEM sample preparation, the standard protocol was used based on our previous report ([26]) with slight modifications. Overnight E. coli K88 cultures were inoculated and grown to the mid-logarithmic phase in the fresh LB medium at 37°C for 2 h, then harvested by centrifugation, washed twice with PBS and re-suspended in the same buffer. Approximately 2 × 10^7 cells were incubated with 1 and 2 × MIC MccJ25 at 37°C for 1 h. Thereafter, cells were pooled and centrifuged at 5000 g for 5 min. Bacterial pellets were washed 3 times with PBS and centrifuged after each wash. Cells were fixed with 2.5% glutaraldehyde at 4°C overnight and washed 2 times with PBS. They were then harvested, post-fixed with 1% osmium tetroxide for 1 h and dehydrated for 15 min each in a graded ethanol series (50, 70, 80, 90, 95 and 100%). Cells were then treated with absolute acetone for 20 min, a mixture of alcohol and iso-amyl acetate (1:1) for 30 min and pure iso-amyl acetate for 1 h. Lastly, samples were dehydrated in a critical point dryer (Model HCP-2, Hitachi, Chiyoda-ku, Tokyo, Japan) with liquid CO2. The dehydrated samples were coated with gold-palladium and observed by SEM (Model EVO MA10 XVP, Carl Zeiss, Jena, GmbH, Germany). […]

[2] = tested on: E. coli K88 on IPEC-1 cells; experiment: Protection against E. coli K88 adhesion and colonization of IPEC-1 cells; conditions: 1, 2, 4, 8 × MIC for 3 h, then E. coli K88 for 2 h; plate counts; 6 biological replicates
Description: Capacity of against E. coli K88 adhesion and colonization of IPEC-1 cells was evaluated. IPEC-1 cells were cultured with or without MccJ25 for 3 h in the absence or presence of E. coli K88 for 2 h. The E. coli K88 adhesion and colonization in the IPEC-1 cells was determined. E. coli K88 (mean CFU/ml ± SEMs) were determined by plate counts, and determined from three individual experiments.
Figure S1. MccJ25 enhances intestinal epithelial cell to against E. coli K88 infection. […] IPEC-1 cells were cultured in the presence or absence of 1, 2, 4, 8 × MIC of MccJ25 for 3 h, then cells were treated with E. coli K88 for 2 h. The numbers of E. coli K88 were counted. E. coli K88 (mean CFU/ml ± SEMs) were determined by plate counts from 6 biological replicates. **P ≤ 0.01, ***P ≤ 0.001.

E. coli K88 [3] = conditions: sub-MIC levels, 25-d passage period; six biological replicates
Description: To quantify the production status of the bacteria, the bacterial density was measured after incubating for 24 h. Cultures with the second highest concentration allowed to grow (OD600 ≥ 2) were diluted 1:100 with MccJ25 MHB at different concentrations than those described above. Cultures that grew above the indicated MIC levels were plated on LB agar plates, and their MIC levels were determined by the broth macrodilution method.

CC[C@H](C)[C@H](NC(=O)CNC(=O)[C@@H](NC(=O)[C@H](Cc1ccccc1)NC(=O)[C@H](Cc1ccc(O)cc1)NC(=O)[C@@H]1CCC(=O)NCC(=O)NCC(=O)N[C@@H](C)C(=O)NCC(=O)N[C@@H](Cc2c[nH]cn2)C(=O)N[C@@H](C(C)C)C(=O)N2CCC[C@H]2C(=O)N1)C(C)C)C(=O)NCC(=O)N[C@H](C(=O)N1CCC[C@H]1C(=O)N[C@H](C(=O)N[C@@H](CO)C(=O)N[C@@H](Cc1ccccc1)C(=O)N[C@@H](Cc1ccc(O)cc1)C(=O)NCC(=O)O)[C@@H](C)CC)[C@@H](C)O [MccJ25, microcin J25] (GGAGHVPEYFVGIGTPISFYG-OH; lactam N-8 (inferred); C-terminus assumed)
cell morphology by SEM (E. coli K88 [1]; 1 × and 2 × MIC, 60 min): filamentous and elongated
cell membranes by TEM (E. coli K88 [1]; 1 ×, 2 × and 4 × MIC, 0.5 and 1 h): disrupted
E. coli K88 adhesion and colonization [2]: significantly protects
resistant mutants during serial passage (E. coli K88 [3]): No resistant mutants were detected
